Measurements as given in patent publication US12076342B2, “Method for generating progenitor t cells from stem and/or progenitor cells and use of same” (THE GOVERNING COUNCIL OF THE UNIVERSITY OF TORONTO, priority 2016, dated 2024).

Key:
[1] = tested on: CD34+ HSPCs derived from cord blood; test: Fed-batch bioreactor expansion culture of human CD34+ HSPCs; type: cell-based; settings: 500 nM, 12 days of expansion, compared to control FB cultures
Description: Umbilical cord blood samples were collected from consenting donors according to ethically approved procedures at Mt. Sinai Hospital (Toronto, ON, Canada). Cells were red blood cell (RBC) depleted as previously described^10, using HetaSep (StemCell Technologies). CD34+ progenitor cells were selected with the EasySep system using a human CD34+ enrichment kit (StemCell Technologies), according to the manufacturer's protocol. Freshly isolated CD34+ cells were seeded at a density of 1×10^5 total cells/mL. Cells were seeded in StemSpan-ACF medium (StemCell Technologies), supplemented with 100 ng/mL Stem Cell Factor (SCF, R&D Systems or CellGenix), 100 ng/mL FMS-like Trysine Kinase 3 Ligand (Flt3L, R&D Systems or CellGenix), 50 ng/mL Thrombopoietin (TPO, R&D Systems or CellGenix), 2 mM GlutaMAX (GIBCO) and/or 500 nM UM729 small molecule. Cells were cultured for 12 days with minimal manual manipulation during the culture period, as previously described^11.
Cells were harvested from either fed-batch or fed-batch+UM729 at day 12 and sorted for CD34+ and CD34− populations. Sorted CD34+ and CD34− cells from both culture methods were seeded along with thawed unexpanded day 0 CD34+ HSPCs at 4000 cells/96-well coated overnight with 20 μg/mL DL4 and 2.3 μg/mL VCAM-1 in serum-free IMDM+BIT medium containing 100 ng/mL SCF, Tpo, Flt3L and IL-7. […]

[2] = tested on: human umbilical cord blood-derived CD34+ HSPCs; test: Human CD34+ HSPC progenitor T cell differentiation on coated plates; type: cell-based; settings: serum-free IMDM+BIT, 9 or 14 days; matrix proteins in conjunction with DL4
Description: For human HSPC culture, umbilical cord blood samples were collected from consenting donors according to ethically approved procedures at Mount Sinai Hospital. CD34+ cells were isolated from the red blood cell (RBC)-lysed cord blood fraction using the EasySep™ Human CD34 Positive Selection Kit (Stemcell Technologies) according to the manufacturer's instructions. Flow cytometry was performed after every enrichment to ensure CD34 frequencies were greater than 95%. CD34+ HSPCs were cultured for 14 days on DL4 and VCAM-1 coated 96-well plates at higher seeding densities of 12,500 HSPCs/cm^2 (corresponding to 4000 cells/well). One complete medium exchange was performed at day 7 of culture and cells were returned to the same DL4 and VCAM-1 coated plates. For certain experiments, DL4-Fc was coated alone or with RetroNectin® (Takara Shuzo) or fibronectin (Sigma Aldrich) as described in the text. CD34+ cells were cultured in serum-free Iscove modified Dulbecco medium (Gibco) with 20% bovine serum albumin, insulin, and transferrin serum substitute (BIT; Stemcell Technologies), 1% GlutaMAX™ (Gibco) and 1 μg/mL low-density lipoproteins (Calbiochem). The medium was added at 50 μL/well supplemented with 100 ng/mL SCF (R&D Systems, Minneapolis, MN), 100 ng/mL Flt3L (R&D Systems), 100 ng/mL Tpo (R&D Systems) and 100 ng/mL IL-7 (R&D Systems).
Surface marker staining was performed with conjugated rat anti-mouse antibodies (BD Biosciences, San Jose, CA, Table 1). All samples were analyzed on a FACSCanto™ or FACS LSRFortessa™ flow cytometer (BD Biosciences). At day 7 of culture, cells were lifted off the plate with multiple HF rinses, stained at 1:400 dilution with antibodies against CD45, CD25, CD44, CD90, CD11 b and CD19 for 20 minutes on ice. […] Integrin expression was analyzed using antibodies against α4, β1, and β7 integrin subunits on Sca-1+cKit+ mouse HSPCs and CD34+ human umbilical blood cells. […] Flow data was analyzed and batch processed using FlowJo® software and further analyzed in Python (version 2.7.10).

[3] = tested on: Notch pathway (CBF1-Firefly); test: NIH3T3 luciferase assay for measuring Notch activation; type: cell-based
Description: NIH3T3 cells were seeded at 125,000 cells/well in a 6-well plate on the previous day and transiently transfected overnight with Notch1, CBF1-Firefly and constitutively active Renilla plasmids using FuGENE® HD transfection reagent (Promega Corporation, Madison WI USA) as per the manufacturer's instructions. Transfected NIH3T3 cells were either seeded on DL4-coated plates or in DL4-conjugated MC for 24 hours prior to measuring Firefly activation normalized to Renilla expression using the dual-luciferase reporter assay system (Promega Corporation, Madison WI USA) according to the manufacturer's instructions.

[4] = tested on: sorted sca1+ckit+ fetal-liver HSPCs; test: Defined T cell differentiation assay on adsorbed ligand, flow cytometry; type: cell-based, mouse
Description: FIG. 2a: Schematic for 2D coated DL4 assay, in which sorted E13.5 sca1+ckit+ fetal-liver HSPCs are seeded on coated DL4 ligand in standard 96-well flat bottom plates at 1000 cells/well density in 200 μl test media containing cytokines 25 ng/mL SCF, 5 ng/mL Flt3L and 1 ng/mL IL7; cells are re-fed on day 4 with fresh media containing cytokines; on day 7, cells are assayed for surface marker expression using flow cytometry.
Commercially available DL4-Fc was purchased and used for experiments from Sino Biologicals (Cedarlane Labs, Burlington, Ontario, Canada) or manufactured in-house as described below. DL4-Fc was diluted in chilled phosphate-buffered saline (PBS) at 10 μg/mL or […] and 50 μL/well was coated in standard tissue-culture 96-well plates overnight at 4° C. Wells were washed once with PBS prior to seeding cells to remove any unbound ligand from the wells. For certain experiments, wells were also coated overnight with 50 μL/well PBS containing DL4-Fc and VCAM-1-Fc (R&D) or fibronectin (Sigma) at concentrations described herein.
Sorted sca1+ckit+ HSPCs were cultured at 1000 cells/well (corresponding to 3.1×10^3 cells/cm^2) in DL4-coated 96-well plates in serum-free Iscove modified Dulbecco medium (Gibco, Rockville, MD) with 20% bovine serum albumin, insulin, and transferrin serum substitute (BIT; Stemcell Technologies), 1% GlutaMAX™ (Gibco) and 1 μg/mL low-density lipoproteins (Calbiochem, La Jolla, CA) [IMDM+BIT]. For positive control cultures, OP9 serum medium was used, composed of αMEM medium (Gibco) and 16% FBS (Hyclone™, GE Health). Serum-free αMEM+BIT medium was prepared exactly as IMDM+BIT medium except using αMEM (Gibco) as the base medium. OP9 serum medium, αMEM+BIT or IMDM+BIT serum free medium was added at 200 μL/well supplemented with 25 ng/mL Stem Cell Factor (SCF; R&D Systems, Minneapolis, MN), 5 ng/mL FMS-like Tyrosine Kinase 3 Ligand (Flt3L; R&D Systems) and 1 ng/mL Interleukin-7 (IL-7; R&D Systems) with a 50% medium exchange step at day 4 containing 2-fold concentrated cytokines as described previously^9. Design of Experiment (DOE) in silico modeling was performed using Design-Expert® (v10) using response surface method to investigate the combinatorial desirability of different concentrations of SCF, Flt3L and IL-7 for maximizing DN3 T-cell yield and minimizing the volume of IMDM+BIT medium. After DOE optimization, IMDM+BIT serum-free medium was added at 50 μL/well supplemented with 50 ng/mL SCF (R&D Systems), 10 ng/mL Flt3L (R&D Systems) and 10 ng/mL IL-7 (R&D Systems) unless described otherwise in the text with no medium exchange for the length of the assay. For the candidate factor screening in serum-free IMDM+BIT medium, the following proteins or small molecules were used at the concentrations listed: JAK inhibitor I (50 nM; EMD Millipore), IL-11 (10, 50, and 100 ng/mL; R&D Systems), IL-6 (10, 50, and 100 ng/mL; R&D Systems), IL-6R (100 ng/mL; R&D Systems), Ccl25 (1.5 μg/mL; R&D Systems), IL-7 (50, 100, and 200 ng/mL; R&D Systems), SDF1α (Cxcl12; 200 ng/mL; R&D Systems), and Leukemia Inhibitory Factor (LIF; 0.1, 1, and 10 ng/mL; EMD Millipore).
Surface marker staining was performed with conjugated rat anti-mouse antibodies (BD Biosciences, San Jose, CA, Table 1). All samples were analyzed on a FACSCanto™ or FACS LSRFortessa™ flow cytometer (BD Biosciences). At day 7 of culture, cells were lifted off the plate with multiple HF rinses, stained at 1:400 dilution with antibodies against CD45, CD25, CD44, CD90, CD11 b and CD19 for 20 minutes on ice. Human progenitor T-cells were stained at 1:100 dilution with antibodies against CD34, CD7, CD5 and CD45RA. Integrin expression was analyzed using antibodies against α4, β1, and β7 integrin subunits on Sca-1+cKit+ mouse HSPCs and CD34+ human umbilical blood cells. […]

With `COC(=O)c1ccc2c(c1)[nH]c1ncnc(NCCCN3CCCCC3)c12` [UM-729] the “CD34− yield” value [1] was “minimized CD34− yield” and the “overall CD34+ yield” value [1] was “enhanced overall CD34+ yield”.

With fibronectin [reference compound] the “generation of later stage progenitor T cells from CD34+ HSPCs” value [2] was “incapable of differentiating CD7+CD34+ progenitors further along the T cell lineage”.

With “soluble DL4: DL4 ligand supplied in soluble rather than adsorbed form” the “Notch1 intracellular domain translocation (CBF1-luciferase)” value ([3]; soluble DL4 added, cells on immobilized DL4) was “actively inhibits translocation of the intracellular domain of Notch1 receptor”, the “DN3 cell generation in soluble ligand” value ([4]; 10 μg/mL soluble DL4, day 7) was “no DN3 cells were generated” and the “effect of soluble ligand on induction by adsorbed DL4” value ([4]; mixture of adsorbed and soluble DL4, day 7) was “completely inhibited the inductive effects of adsorbed DL4 ligand”.

B1: DL1: Delta-like-1 (DL1), alternate Notch-1 ligand (protein, UniProt O00548 18-723, looked up)
Delta-like protein 1: QVWSSGVFELKLQEFVNKKGLLGNRNCCRGGAGPPPCACRTFFRVCLKHYQASVSPEPPCTYGSAVTPVLGVDSFSLPDGGGADSAFSNPIRFPFGFTWPGTFSLIIEALHTDSPDDLATENPERLISRLATQRHLTVGEEWSQDLHSSGRTDLKYSYRFVCDEHYYGEGCSVFCRPRDDAFGHFTCGERGEKVCNPGWKGPYCTEPICLPGCDEQHGFCDKPGECKCRVGWQGRYCDECIRYPGCLHGTCQQPWQCNCQEGWGGLFCNQDLNYCTHHKPCKNGATCTNTGQGSYTCSCRPGYTGATCELGIDECDPSPCKNGGSCTDLENSYSCTCPPGFYGKICELSAMTCADGPCFNGGRCSDSPDGGYSCRCPVGYSGFNCEKKIDYCSSSPCSNGAKCVDLGDAYLCRCQAGFSGRHCDDNVDDCASSPCANGGTCRDGVNDFSCTCPPGYTGRNCSAPVSRCEHAPCHNGATCHERGHRYVCECARGYGGPNCQFLLPELPPGPAVVDLTEKLEGQGGPFPWVAVCAGVILVLMLLLGCAAVVVCVRLRLQKHRPPADPCRGETETMNNLANCQREKDISVSIIGATQIKNTNKKADFHGDHSADKNGFKARYPAVDYNLVQDLKGDDTAVRDAHSKRDTKCQPQGSSGEEKGTPTTLRGGEASERKRPDSGCSTSKDTKYQSVYVISEEKDECVIATEV
In the case of B1, the “Notch pathway activation (CBF-1 Firefly normalized to Renilla)” value ([3]; 24 hours, DL1-Fc at 10 and 20 μg/mL) is reported as “unable to sustain progenitor T cell production or activate the Notch pathway at similar coating concentrations as DL4 ligand” and the “generation of DN2/DN3 progenitor T cells on adsorbed ligand” value ([4]; same range of coating concentrations as DL4, day 7) is reported as “incapable of generating DN2 or DN3 progenitor T cells”.

B2: IL-7: Interleukin-7 cytokine (R&D Systems) (protein, UniProt P13232 26-177, looked up)
Interleukin-7: DCDIEGKDGKQYESVLMVSIDQLLDSMKEIGSNCLNNEFNFFKRHICDANKEGMFLFRAARKLRQFLKMNSTGDFDLHLLKVSEGTTILLNCTGQVKGRKPAALGEAQPTKSLEENKSLKEQKKLNDLCFLKRLLQEIKTCWNKILMGTKEH
In the case of B2, the “DN3 yield with raised IL-7 concentration” value ([4]; IL-7 from 2 to 10 ng/mL, 50-10-10 no-feed condition vs 25-5-1 re-feed control) is reported as “significantly higher yields of T lineage-committed DN3 cells than the control”.
